pEC50: −log10 of the molar value. Where two headings read alike, the source gives them in different places.
System: CFTR-Y122X
Test: CFTR-Y122X assay (dual reporter isogenic Hek293 cell lines, Renilla luminescence readthrough)
Format: cell-based
Conditions: Homo sapiens, HEK293
From the text: Activity of compounds of the present invention was examined in recombinant, dual reporter isogenic Hek293 cell lines (“CFTR-Y122X assay”). The engineered reporter constructs contained the 18 bp sequence stretch corresponding to a common Y122X PTC mutation in CFTR class I mutant patients (see Sermet-Gaudelus, BMC Medicine, 2007, 5(5)). Instead of a tyrosine (Y) in position 122 of the CFTR protein a TGA stop codon interrupts the open reading frame (Y122X) of the corresponding mRNA. This TGA stop codon triplet (followed by the pyrimidine base cytosine) is permissive to aminoglycoside mediated translational readthrough which served as positive control for high throughput screening. A corresponding TAA stop codon variant and a wildtype non mutated construct was used for confirmation and counter screening. The CFTR sequence was sandwiched between an eGFP reporter, and a triple myc tag sequence fused to a full length Renilla reporter. All sequences, including an intron containing one positioned pre-eGFP (b-globin intron) were cloned in frame. The corresponding expression constructs were stably expressed in the isogenic HEK-R4 cell host (Invitrogen Incorp.) and selected by blasticidin resistance. The isogenic integration of the construct minimizes gene dose effects and improves assay reproducibility. Stably integrated single cell derived clones were selected and characterized for aminoglycoside mediated readthrough. […] Readthrough of Y122X accumulates an intracellular localized fusion protein approximately 65.5 kDa in size as controlled by western blot analysis and immunofluorescence using an anti-renilla antibody. The eGFP reporter pre-PTC mutation serves as visual control for genetic stability of the screening clones and minimizes protein degradation of small fusion protein amounts. In the assay, compound concentration was 10 μM. In miniaturized 1536 well format 2000 cells were dispensed in 4 μl/well and incubated for 24 h at 37° C., 5% CO2. 40 nl compounds were placed on the cells with control wells containing 1 ul Paramomycin and 14.4 mM final concentration. Compounds were incubated for 24 h. Renilla Glo substrate (2.5 ul) was added and plates were centrifuged and processed for luminescence measurement using various readers. Activity calculation was done using the equation: A1 (%)=100*(S−NC)/(AC−NC) where AC, NC and S correspond to active controls (injection of Stimulation buffer=100% stimulation), neutral controls (buffer injection which Iloprost EC10) and screening samples (S). NC corresponds to 0% activity whereas AC is 100% activity (14 mM paromomycin). False positive artefacts were removed in confirmation and validation screening using the same assay format followed by counterscreening using the respective wildtype construct (w/o PTC mutation) cell model. Compounds were tested up to 100 μM compound concentration.

[1] = nonsense mutation suppression, 100% = 14 mM paromomycin, 24 h incubation, tested up to 100 μM, read-out: Amax [%]
[2] = nonsense mutation suppression, 24 h incubation
[3] = at the above dose ranges (up to 100 μM), read-out: suppression, % of paromomycin reference activity

Structure (SMILES)	Emax [1] [%]	AC50 [2] [µM]	also measured
Cc1ccccc1-c1nc2c(c(=O)c3ccccc3n2C)c(=O)n1C1CCCC1 [Example 2.34, 3-cyclopentyl-10-methyl-2-(o-tolyl)pyrimido[4,5-b]quinoline-4,5(3H,10H)-dione]	33	8.4	–
Cn1c2ccccc2c(=O)c2c(=O)n(-c3c(Cl)cccc3Cl)c(C3CCC3)nc21 [Example 1.46, 2-cyclobutyl-3-(2,6-dichlorophenyl)-10-methylpyrimido[4,5-b]quinoline-4,5(3H,10H)-dione]	25	–	–
CC(C)c1nc2c(c(=O)c3cc(C#N)ccc3n2C)c(=O)n1C1CCCC1 [Example 2.14, 3-cyclopentyl-2-isopropyl-10-methyl-4,5-dioxo-3,4,5,10-tetrahydropyrimido[4,5-b]quinoline-7-carbonitrile]	9	6.6	–
NC[C@@H]1O[C@H](O[C@H]2[C@@H](O)[C@H](O[C@@H]3[C@@H](O)[C@H](N)C[C@H](N)[C@H]3O[C@H]3O[C@H](CO)[C@@H](O)[C@H](O)[C@H]3N)O[C@@H]2CO)[C@H](N)[C@@H](O)[C@@H]1O [paromomycin, reference compound]	–	–	pEC50 (clone pursued for HTS assay development, read-out: EC50 (readthrough response of the selected clone)): 2.82
Cn1c2ccccc2c(=O)c2c(=O)n(C3CCCCCC3)c(-c3ccc([N+](=O)[O-])cc3)nc21 [3-cycloheptyl-10-methyl-2-(4-nitrophenyl)pyrimido[4,5-b]quinoline-4,5(3H,10H)-dione]	–	–	Emax [3]: < 5%
CC(C)c1nc2[nH]c3ccccc3c(=O)c2c(=O)n1-c1ccccc1 [Example 1.3, 2-isopropyl-3-phenylpyrimido[4,5-b]quinoline-4,5(3H,10H)-dione]	279	6.1	–
CC(C)c1nc2c(c(=O)c3cc(Br)ccc3n2C)c(=O)n1C1CCCC1 [Example 2.12, 7-bromo-3-cyclopentyl-2-isopropyl-10-methylpyrimido[4,5-b]quinoline-4,5(3H,10H)-dione]	–	–	Emax at 25 µM (measured at 25 μM compound concentration (footnote a), read-out: Amax [%]: % nonsense mutation suppression relative to paromomycin reference activity): 23%
NCCn1c2ccccc2c(=O)c2c(=O)n(-c3ccccc3)c(C3CCC3)nc21 [Example 1.37, 10-(2-aminoethyl)-2-cyclobutyl-3-phenylpyrimido[4,5-b]quinoline-4,5(3H,10H)-dione]	348	0.9	–
Cc1ccc(-c2nc3c(c(=O)c4ccccc4n3C)c(=O)n2C2CCCCC2)cc1 [Example 2.36, 3-cyclohexyl-10-methyl-2-(p-tolyl)pyrimido[4,5-b]quinoline-4,5(3H,10H)-dione]	29	3.5	–
Cc1ccccc1-n1c(C(C)C)nc2c(c(=O)c3ccccc3n2C)c1=O [Example 1.18, 2-isopropyl-10-methyl-3-(o-tolyl)pyrimido[4,5-b]quinoline-4,5(3H,10H)-dione]	248	6.9	–
CCCc1nc2c(c(=O)c3ccccc3n2C)c(=O)n1C1CCCCCC1 [Example 2.23, 3-cycloheptyl-10-methyl-2-propylpyrimido[4,5-b]quinoline-4,5(3H,10H)-dione]	181	5	–
CC(C)c1nc2c(c(=O)c3ccccc3n2CCO)c(=O)n1-c1ccccc1 [Example 1.42, 10-(2-hydroxyethyl)-2-isopropyl-3-phenylpyrimido[4,5-b]quinoline-4,5(3H,10H)-dione]	117	15.7	–
Cn1c2ccccc2c(=O)c2c(=O)n(C3CCCCC3)c(-c3ccc([N+](=O)[O-])cc3)nc21 [Example 2.45, 3-cyclohexyl-10-methyl-2-(4-nitrophenyl)pyrimido[4,5-b]quinoline-4,5(3H,10H)-dione]	14	11	–
CC(C)Cc1nc2c(c(=O)c3ccccc3n2C)c(=O)n1C1CCCC1 [Example 2.5, 3-cyclopentyl-2-isobutyl-10-methylpyrimido[4,5-b]quinoline-4,5(3H,10H)-dione]	243	8.1	–
Cc1cc(C)cc(-n2c(C(C)C)nc3c(c(=O)c4ccccc4n3C)c2=O)c1 [Example 1.35, 3-(3,5-dimethylphenyl)-2-isopropyl-10-methylpyrimido[4,5-b]quinoline-4,5(3H,10H)-dione]	13	1.5	–
C=CCn1c2ccccc2c(=O)c2c(=O)n(C3CCCC3)c(C(C)C)nc21 [Example 2.1, 10-allyl-3-cyclopentyl-2-isopropylpyrimido[4,5-b]quinoline-4,5(3H,10H)-dione]	102	21	–
CCC(C)c1nc2c(c(=O)c3ccccc3n2C)c(=O)n1C1CCCC1 (centres unmarked) [Example 2.4, 2-(sec-butyl)-3-cyclopentyl-10-methylpyrimido[4,5-b]quinoline-4,5(3H,10H)-dione]	258	6.1	–
CC(C)c1nc2c(c(=O)c3ccccc3n2C)c(=O)n1C1CCCC1 [Example 2.15, 3-cyclopentyl-2-isopropyl-10-methylpyrimido[4,5-b]quinoline-4,5(3H,10H)-dione]	275	3.8	–
Cn1c2ccccc2c(=O)c2c(=O)n(C3CCCC3)c(-c3ccco3)nc21 [Example 2.49, 3-cyclopentyl-2-(furan-2-yl)-10-methylpyrimido[4,5-b]quinoline-4,5(3H,10H)-dione]	7	1.8	–
CCCCCc1nc2c(c(=O)c3ccccc3n2C)c(=O)n1-c1ccccc1 [Example 1.29, 10-methyl-2-pentyl-3-phenylpyrimido[4,5-b]quinoline-4,5(3H,10H)-dione]	336	7.1	–
COc1cccc2c(=O)c3c(=O)n(C4CCCC4)c(C(C)C)nc3n(C)c12 [Example 2.9, 3-cyclopentyl-2-isopropyl-9-methoxy-10-methylpyrimido[4,5-b]quinoline-4,5(3H,10H)-dione]	73	18.4	–
CC(C)c1nc2c(c(=O)c3ccccc3n2C)c(=O)n1-c1ccccc1Br [Example 1.40, 3-(2-bromophenyl)-2-isopropyl-10-methylpyrimido[4,5-b]quinoline-4,5(3H,10H)-dione]	112	12.1	–
Cn1c2ccccc2c(=O)c2c(=O)n(C3CCCCCC3)c(-c3ccccc3)nc21 [Example 2.26, 3-cycloheptyl-10-methyl-2-phenylpyrimido[4,5-b]quinoline-4,5(3H,10H)-dione]	97	11.1	–
Cn1c2ccccc2c(=O)c2c(=O)n(C3CCCC3)c(-c3ccc(F)cc3)nc21 [Example 2.33, 3-cyclopentyl-2-(4-fluorophenyl)-10-methylpyrimido[4,5-b]quinoline-4,5(3H,10H)-dione]	–	–	Emax at 100 µM (measured at 100 μM compound concentration (footnote d), read-out: Amax [%]: % nonsense mutation suppression relative to paromomycin reference activity): 18%
Cn1c2ccccc2c(=O)c2c(=O)n(-c3ccccc3)c(C3CCCCC3)nc21 [Example 1.32, 2-cyclohexyl-10-methyl-3-phenylpyrimido[4,5-b]quinoline-4,5(3H,10H)-dione]	38	–	–
Cn1c2ccccc2c(=O)c2c(=O)n(C3CCCC3)c(C3CCCN(C4CCCC4)C3)nc21 (centres unmarked) [3-cyclopentyl-2-(1-cyclopentylpiperidin-3-yl)-10-methylpyrimido[4,5-b]quinoline-4,5(3H,10H)-dione]	–	–	Emax [3]: < 5%
CC(C)Cn1c2ccccc2c(=O)c2c(=O)n(-c3ccccc3)c(C(C)C)nc21 [10-isobutyl-2-isopropyl-3-phenylpyrimido[4,5-b]quinoline-4,5(3H,10H)-dione]	–	–	Emax [3]: < 5%
C#Cc1ccc2c(c1)c(=O)c1c(=O)n(C3CCCC3)c(C(C)C)nc1n2C [Example 2.13, 3-cyclopentyl-7-ethynyl-2-isopropyl-10-methylpyrimido[4,5-b]quinoline-4,5(3H,10H)-dione]	11	–	–

Source: patent publication US9649314B2, “Pyrimido[4,5-b]quinoline-4,5(3H,10H)-diones” (NOVARTIS AG, priority 2012, dated 2017)
